In ChEMBL document CHEMBL1201862, “PubChem BioAssay data set” (2004):
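Compound exposure: 48 hours, 5 concentrations, 96-well plates. GI50 marks 50% less growth.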 Calls of active or inactive are those of the source. Cut-off read from the data, not from the text of the source: active = GI50 up to about 1.1 µM and inactive = higher. Starred links: 1 amine or outer side, 2 acyl side, 3 side chain; linkers in the order of their positions; H or OH if unused. Positions of bridges follow the written chain, without caps; N, C: chain ends. Non-standard residues stand in square brackets, D forms with d. Residues, ends and D or L forms follow the SMILES beside them. Chains are numbered I, II in the order given. Actinocin(1to9) = Cc1c2oc3c(C)ccc(C(=O)[*:2])c3nc-2c(C(=O)[*:1])c(N)c1=O; NMeV = CN[CH](C(=O)O)C(C)C; Sar = CNCC(=O)O

Tests used:
Assay in all cases: NCI-60 cell line screen, 48 h
ACHN = test system: ACHN
COLO 205 = test system: COLO 205
HCC 2998 = test system: HCC 2998
HCT-116 = test system: HCT-116
HOP-62 = test system: HOP-62
Hs-578T = test system: Hs-578T
IGROV-1 = test system: IGROV-1
K562 = test system: K562
LOX IMVI = test system: LOX IMVI
M14 = test system: M14
NCI-H23 = test system: NCI-H23
OVCAR-3 = test system: OVCAR-3
PC-3 = test system: PC-3
SK-MEL-5 = test system: SK-MEL-5
SK-OV-3 = test system: SK-OV-3
SN12C = test system: SN12C
SNB-75 = test system: SNB-75
SR = test system: SR
SW-620 = test system: SW-620
TK-10 = test system: TK-10

Compound | GI50 (ACHN) | GI50 (COLO 205) | GI50 (HCC 2998) | GI50 (HCT-116) | GI50 (HOP-62) | GI50 (Hs-578T) | GI50 (IGROV-1) | GI50 (K562) | GI50 (LOX IMVI) | GI50 (M14) | GI50 (NCI-H23) | GI50 (OVCAR-3) | GI50 (PC-3) | GI50 (SK-MEL-5) | GI50 (SK-OV-3) | GI50 (SN12C) | GI50 (SNB-75) | GI50 (SR) | GI50 (SW-620) | GI50 (TK-10)
COC(=O)c1cc2c(cc1O)[C@@H](NC(C)=O)CCc1cc(OC)c(OC)c(OC)c1-2 | 0.111 µM (active) | 0.029 µM (active) | 0.0578 µM (active) | 0.0274 µM (active) | 0.0946 µM (active) | 0.017 µM (active) | 0.0627 µM (active) | 0.0412 µM (active) | 0.0501 µM (active) | 0.0454 µM (active) | 0.0296 µM (active) | 0.0518 µM (active) | 0.0509 µM (active) | 0.0235 µM (active) | 0.0951 µM (active) | 0.127 µM (active) | 0.0299 µM (active) | 0.055 µM (active) | 0.108 µM (active) | > 10 µM (inactive)
COc1cc(C2C3=C(COC3=O)Oc3cc4c(cc32)OCO4)cc(OC)c1OC (stereo not given) | < 0.0326 µM (active) | 0.0333 µM (active) | 0.0402 µM (active) | < 0.0144 µM (active) | < 0.0255 µM (active) | 0.0521 µM (active) | 0.0489 µM (active) | 0.0108 µM (active) | < 0.0164 µM (active) | 0.0326 µM (active) | 0.0441 µM (active) | 0.025 µM (active) | 0.0331 µM (active) | 0.0198 µM (active) | < 0.0144 µM (active) | 0.0515 µM (active) | 0.00993 µM (active) | 0.0424 µM (active) | 0.0173 µM (active) | > 10 µM (inactive)
C[C@H](CO)C1=CC(C#C[Si](C)(C)C)N(C(=O)Oc2ccccc2)c2ccccc21 (stereo not given in full) | 13.8 µM (inactive) | 5.6 µM (inactive) | 10.6 µM (inactive) | 10.8 µM (inactive) | 6.05 µM (inactive) | 10.2 µM (inactive) | 12.4 µM (inactive) | 4.54 µM (inactive) | 15.7 µM (inactive) | 7.69 µM (inactive) | 4.29 µM (inactive) | 3.93 µM (inactive) | 10.2 µM (inactive) | 12.7 µM (inactive) | 11.6 µM (inactive) | 12 µM (inactive) | 6.5 µM (inactive) | 3.4 µM (inactive) | 12.4 µM (inactive) | 17 µM (inactive)
CCC(C)C1NC(=O)C(NC(=O)c2c3nc4c(C(=O)NC5C(=O)NC(C(C)CC)C(=O)N6CCCC6C(=O)N(C)CC(=O)N(C)C(C(C)C)C(=O)OC5C)ccc(C)c4oc-3c(C)c(=O)c2N)C(C)OC(=O)C(C(C)C)N(C)C(=O)CN(C)C(=O)C2CCCN2C1=O (stereo not given) (I: TIP[Sar][NMeV] / II: TIP[Sar][NMeV]; ester I:1-I:C, II:1-II:C; linker I:N-II:N via Actinocin(1to9); configuration not given here) | 0.00162 µM (active) | < 0.0001 µM (active) | 0.013 µM (active) | < 0.0001 µM (active) | < 0.0001 µM (active) | 0.0065 µM (active) | < 0.0001 µM (active) | < 0.0001 µM (active) | < 0.0001 µM (active) | < 0.00995 µM (active) | 0.00133 µM (active) | 0.00184 µM (active) | 0.000895 µM (active) | 0.000198 µM (active) | 0.0208 µM (active) | 0.000282 µM (active) | 0.00319 µM (active) | < 0.0001 µM (active) | 0.000236 µM (active) | 0.0147 µM (active)
CCCCCCCCCC1CC(=O)NCC(=O)NC(C(C)C)C(=O)NC(CC(C)C)C(=O)NC(C)C(=O)NC(C(C)C)C(=O)O1 (stereo not given) | > 79.8 µM (inactive) | 50.4 µM (inactive) | > 42.7 µM (inactive) | 14.8 µM (inactive) | 22.5 µM (inactive) | 18 µM (inactive) | 31.9 µM (inactive) | 16.8 µM (inactive) | 7.96 µM (inactive) | 20.2 µM (inactive) | 13.6 µM (inactive) | 9.59 µM (inactive) | 6.9 µM (inactive) | 17.3 µM (inactive) | 16.6 µM (inactive) | 19.1 µM (inactive) | 12.3 µM (inactive) | 13.3 µM (inactive) | 3.84 µM (inactive) | 24.3 µM (inactive)
O=C(NC(=S)Nc1ccc2c(c1)Sc1ccccc1O2)c1ccccc1 | 31.3 µM (inactive) | 38.8 µM (inactive) | 7.46 µM (inactive) | 41 µM (inactive) | 27.4 µM (inactive) | 39.6 µM (inactive) | 29.6 µM (inactive) | 6.27 µM (inactive) | 39.1 µM (inactive) | 43.2 µM (inactive) | 30.8 µM (inactive) | 35.7 µM (inactive) | 11.2 µM (inactive) | 20.8 µM (inactive) | 29 µM (inactive) | 50.1 µM (inactive) | 15.7 µM (inactive) | 3.67 µM (inactive) | 32.1 µM (inactive) | 20.8 µM (inactive)
